Reference: patent publication US20040185102A1, “Dosage forms comprising a CETP inhibitor and an HMG-CoA reductase inhibitor” (Pfizer Inc, priority 2002, published 2004)

What was measured:
[1] = in vitro dissolution test using a microcentrifuge method; assay type: physicochemical; conditions: for AUC / Torcetrapib Concentration: PBS pH 6.5, 37° C.; for Torcetrapib Concentration: 1000 μg/mL if all drug dissolved
Experimental: The spray-dried solid amorphous dispersion was evaluated in an in vitro dissolution test using a microcentrifuge method. In this test, 7.2 mg of the spray-dried solid amorphous dispersion was placed into a microcentrifuge tube. The tube was placed in a 37° C. sonicating bath, and 1.8 mL phosphate buffered saline (PBS) at pH 6.5 and 290 mOsm/kg was added, resulting in a torcetrapib concentration of 1000 μg/mL if all of the drug had dissolved. The sample was quickly mixed using a vortex mixer for about 60 seconds. The sample was centrifuged at 13,000 G at 37° C. for 1 minute. The resulting supernatant solution was then sampled and diluted 1:6 (by volume with methanol and then analyzed by high-performance liquid chromatography (HPLC). The contents of the tube was mixed on the vortex mixer and allowed to stand undisturbed at 37° C. until the next sample was taken. Samples were collected at 4, 10, 20, 40, 90, and 1200 minutes. The concentrations of drug obtained in these samples are shown in Table 1, which represent the average of duplicate tests.
As a control, an in vitro dissolution test was performed using the procedures described above except that 1.8 mg of crystalline drug was used. […]

[2] = aqueous solubility; assay type: physicochemical

AUC90 (area under the aqueous concentration versus time curve after 90 minutes) ([1]; receptor solution PBS): <88 min-μg/mL | Cmax,90 (maximum concentration of torcetrapib in solution during the first 90 minutes) ([1]; receptor solution PBS): <1000 ng/mL | AUC ([1]; time 0 min): 0 min-μg/mL | Torcetrapib Concentration ([1]; time 0 min): 0 µg/mL | AUC ([1]; time 4 min): <2 min-μg/mL | Torcetrapib Concentration ([1]; time 4 min): <1 µg/mL | AUC ([1]; time 10 min): <8 min-μg/mL | Torcetrapib Concentration ([1]; time 10 min): <1 µg/mL | AUC ([1]; time 20 min): <18 min-μg/mL | Torcetrapib Concentration ([1]; time 20 min): <1 µg/mL | AUC ([1]; time 40 min): <38 min-μg/mL | Torcetrapib Concentration ([1]; time 40 min): <1 µg/mL | AUC ([1]; time 90 min): <88 min-μg/mL | Torcetrapib Concentration ([1]; time 90 min): <1 µg/mL | AUC ([1]; time 1200 min): <1,200 min-μg/mL | Torcetrapib Concentration ([1]; time 1200 min): <1 µg/mL | solubility [2]: < 0.04 µg/mL
Structure (SMILES): CCOC(=O)N1c2ccc(C(F)(F)F)cc2[C@@H](N(Cc2cc(C(F)(F)F)cc(C(F)(F)F)c2)C(=O)OC)C[C@H]1CC [Crystalline Drug, [2R,4S]-4-[(3,5-bis-trifluoromethyl-benzyl)-methoxycarbonyl-amino]-2-ethyl-6-trifluoromethyl-3,4-dihydro-2H-quinoline-1-carboxylic acid ethyl ester]
